Test results: US10562912B2 (C&C Research Laboratories, priority 2013, dated 2020)

Columns and labels:
Format in all cases: cell-based
LNCaP = experiment: Cell growth inhibition assay, prostate cancer cell line LNCaP (medium with 10 ng/mL IL-6); details: Homo sapiens, medium supplemented with 10 ng/mL of IL-6, 10,000 cells/well
Experimental: (§1) The inhibitory effects of the compounds of the present invention against the growth of cancer cells were evaluated as shown below. The cancer cell lines including stomach cancer cell line (AGS), breast cancer cell lines (MDA-MB-231, MDA-MB-468, and BT-549), prostate cancer cell lines (LNCaP and DU-145), colon cancer cell line (HCT116), ovarian cancer cell line (SW626), liver cancer cell line (Hep3B), kidney cancer cell line (ACHN), lung cancer cell line (NCI-H23) and blood cancer cell lines (HEL92.1.7 and U266) were cultured under the protocol provided by each supplier. A medium supplemented with 10 ng/mL of IL-6 was used for LNCaP, a prostate cancer cell line, when treated with a drug. Each type of cells to be used in experiments were sub-cultured in a 96-well plate by counting the exact number of cells using Tali™ Image-based Cytometer (Life Technologies). In a 96-well plate, AGS, HCT116, and DU-145 were employed with 3,000 cells/well; NCI-H23, SW626, Hep3B, ACHN, BT-549, MDA-MB-231, HEL92.1.7, and U266 were employed with 5,000 cells/well; and LNCaP and MDA-MB-468 were employed with 10,000 cells/well. The cells were treated with the compounds listed in Examples which were diluted in various concentrations. Upon completion of the compounds treatment, AGS, HCT116, SW626, DU145, NCI-H23, Hep3B, ACHN, BT-549, LNCaP, HEL92.1.7, and U266 cells were cultured at 37° C. under 5% CO2 for from 72 to 96 hours, and MDA-MB-231 and MDA-MB-468 cells were cultured at 37° C. in air for from 72 to 96 hours. Subsequently, the cells were observed under microscope and drug precipitation and particular findings were investigated and recorded. And then, the 96-well plate was placed at room temperature for 30 minutes, added with 20 μL/well of CellTiter-Glo solution (Cat No. G7573, Promega) and shaken for 10 minutes, followed by being subjected to the measurement using PHERAstar™ microplate reader (BMG LABTECH) according to the supplier's general luminometer protocol. Wells where only culture liquid added without cell plating were used as a negative control, whereas wells where culture liquid containing 0.1% DMSO instead of the compounds listed in Examples were used as a positive control.

STAT3 = target: T1, STAT3 (Homo sapiens, UniProt P40763); experiment: STAT3 reporter gene assay (luciferase), LNCaP stable cell line (pSTAT3-TA-luc), IL-6 stimulation
T1 construct: plasmid pSTAT3-TA-luc), which contains a stably operating STAT3 promoter; endogenous in cells
Experimental: 1-1) Experiment on the Inhibition of STAT3 Activity
A human prostate cancer cell line (LNCaP stable cell line; plasmid pSTAT3-TA-luc), which contains a stably operating STAT3 promoter, was cultured in RPMI1640 medium (Cat No. 11875, Life Technologies) containing 10% fetal bovine serum (FBS) (Cat No. SH30396, Thermo Scientific) and 150 μg/mL G-418 solution (Cat No. 04 727 894 001, Roche). The reporter gene assay using LNCaP stable cell line was performed in RPMI1640 medium containing 3% DCC-FBS without G-418 solution. LNCaP stable cells were plated in two (2) white 96-well plates with 30,000 cells/50 μL in each well. The cells were cultured at 37° C., under 5% CO2 for 24 hours, and then treated with the compounds listed in Examples which were diluted in various concentrations. Subsequently, IL-6 was added to each well with a final concentration of 10 ng/mL. Upon completion of the treatment with the compounds and IL-6, the cells were cultured at 37° C., under 5% CO2 for from 24 to 48 hours. The plates were observed under microscope and drug precipitation and particular findings were investigated and recorded.
The luciferase assay and the cell viability assay were performed respectively with one of the two plates. For the luciferase assay, the liquid media in the 96-well plate was removed, and then, 20 μL of passive cell lysis buffer was added to each well. After shaking the plate for 30 minutes, luciferase activities of each well were measured in a PHERAstar™ microplate reader (BMG LABTECH) using a luciferase assay system (Cat No. E1501, Promega). For the cell viability assay, the 96-well plate was placed at room temperature for 30 minutes, added with 20 μL/well of CellTiter-Glo solution (Cat No. G7573, Promega), and shaken for 10 minutes in order to measure cytotoxicity caused by the compounds listed in Examples with a PHERAstar™ microplate reader (BMG LABTECH). Wells without 0.1% DMSO and stimulation were used as a negative control and wells with 0.1% DMSO and stimulation were used as a positive control.

DU-145 = experiment: Cell growth inhibition assay, prostate cancer cell line DU-145; details: Homo sapiens, DU-145 prostate cancer cell line
Experimental: as §1

T1 sequence (P40763 whole entry): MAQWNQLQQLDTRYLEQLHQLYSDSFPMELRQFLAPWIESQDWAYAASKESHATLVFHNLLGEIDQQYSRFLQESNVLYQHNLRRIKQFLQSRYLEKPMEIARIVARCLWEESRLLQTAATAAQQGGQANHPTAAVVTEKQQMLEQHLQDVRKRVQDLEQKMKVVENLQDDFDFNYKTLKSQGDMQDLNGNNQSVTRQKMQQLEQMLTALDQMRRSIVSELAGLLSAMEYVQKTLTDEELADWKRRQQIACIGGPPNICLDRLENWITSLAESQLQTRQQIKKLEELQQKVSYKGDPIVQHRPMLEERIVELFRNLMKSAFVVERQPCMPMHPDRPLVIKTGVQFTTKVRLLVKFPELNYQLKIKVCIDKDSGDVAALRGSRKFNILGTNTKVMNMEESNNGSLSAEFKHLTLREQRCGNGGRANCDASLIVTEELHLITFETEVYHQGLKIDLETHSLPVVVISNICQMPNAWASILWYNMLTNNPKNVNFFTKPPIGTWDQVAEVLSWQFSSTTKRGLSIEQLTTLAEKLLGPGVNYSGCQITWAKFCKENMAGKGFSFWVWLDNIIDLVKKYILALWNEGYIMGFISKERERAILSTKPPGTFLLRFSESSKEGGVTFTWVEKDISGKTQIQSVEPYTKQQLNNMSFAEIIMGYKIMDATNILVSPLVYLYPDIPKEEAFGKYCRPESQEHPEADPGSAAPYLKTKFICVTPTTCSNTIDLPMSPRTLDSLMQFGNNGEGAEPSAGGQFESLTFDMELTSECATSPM

Structure (SMILES)	IC50 (LNCaP)	IC50 (STAT3)	IC50 (DU-145)
CC(C)Oc1cc(CN2CCC3(CC2)COC3)cc(C(C)(C)c2cc(Cl)cc(NC(=O)c3cc4cc(NS(C)(=O)=O)ccc4s3)c2)c1 [Example 134, N-(3-(2-(3-((2-oxa-7-azaspiro[3,5]nonan-7-yl)methyl)-5-isopropoxyphenyl)propan-2-yl)-5-chlorophenyl)-5-(methylsulfonamido)benzo[b]thiophene-2-carboxamide]	0.84 µM	0.27 µM	0.16 µM
CC(C)Oc1cc(CN2CCN(c3nnc(C(C)C)o3)CC2)cc(C(C)(C)c2cc(Cl)cc(NC(=O)c3cc4cc(NS(C)(=O)=O)ccc4s3)c2)c1 [Example 135, N-(3-chloro-5-(2-(3-isopropoxy-5-((4-(5-isopropyl-1,3,4-oxadiazol-2-yl)piperazin-1-yl)methyl)phenyl)propan-2-yl)phenyl)-5-(methylsulfonamido)benzo[b]thiophene-2-carboxamide]	0.85 µM	0.14 µM	0.3 µM
CC(C)Oc1cc(CN2CCN(c3noc(C(C)C)n3)CC2)cc(C(C)(C)c2cc(F)cc(NC(=O)c3cc4cc(NS(C)(=O)=O)ccc4s3)c2)c1 [Example 136, N-(3-fluoro-5-(2-(3-isopropoxy-5-((4-(5-isopropyl-1,2,4-oxadiazol-3-yl)piperazin-1-yl)methyl)phenyl)propan-2-yl)phenyl)-5-(methylsulfonamido)benzo[b]thiophene-2-carboxamide]	0.38 µM	0.059 µM	0.051 µM
CC(C)Oc1cc(CN2CCOCC2)cc(C(C)(C)c2cc(F)cc(NC(=O)c3cc4cc(NS(C)(=O)=O)ccc4s3)c2)c1 [Example 137, N-(3-fluoro-5-(2-(3-isopropoxy-5-(morpholinomethyl)phenyl)propan-2-yl)phenyl)-5-(methylsulfonamido)benzo[b]thiophene-2-carboxamide]	0.4 µM	0.22 µM	0.1 µM
Cn1nccc1-c1ccc(C(C)(C)c2cc(Cl)cc(NC(=O)c3cc4cc(NS(C)(=O)=O)ccc4s3)c2)cc1 [Example 159, N-(3-chloro-5-(2-(4-(1-methyl-1H-pyrazol-5-yl)phenyl)propan-2-yl)phenyl)-5-(methylsulfonamido)benzo[b]thiophene-2-carboxamide]	0.16 µM	0.31 µM	0.14 µM
CC(C)(c1cc(Cl)cc(NC(=O)c2cc3cc(NS(C)(=O)=O)c(Cl)cc3s2)c1)N1CCCCC1 [Example 165, 6-chloro-N-(3-chloro-5-(2-(piperidin-1-yl)propan-2-yl)phenyl)-5-(methylsulfonamido)benzo[b]thiophene-2-carboxamide]	0.11 µM	0.13 µM	0.07 µM
CC(C)(c1ccc(Cl)cc1)c1cc(Cl)cc(NC(=O)c2cc3cc(NS(C)(=O)=O)c(Cl)cc3s2)c1 [Example 172, 6-chloro-N-(3-chloro-5-(2-(4-chlorophenyl)propan-2-yl)phenyl)-5-(methylsulfonamido)benzo[b]thiophene-2-carboxamide]	0.009 µM	0.016 µM	0.005 µM
CC(C)(c1ccc(Cl)cc1)c1cc(Cl)cc(NC(=O)c2cc3cc(NS(C)(=O)=O)c(Br)cc3s2)c1 [Example 173, 6-bromo-N-(3-chloro-5-(2-(4-chlorophenyl)propan-2-yl)phenyl)-5-(methylsulfonamido)benzo[b]thiophene-2-carboxamide]	0.11 µM	0.011 µM	0.009 µM
CC(C)(c1cc(Cl)cc(NC(=O)c2cc3cc(NS(C)(=O)=O)c(Cl)cc3s2)c1)c1ccc(Cl)s1 [Example 175, 6-chloro-N-(3-chloro-5-(2-(5-chlorothiophen-2-yl)propan-2-yl)phenyl)-5-(methylsulfonamido)benzo[b]thiophene-2-carboxamide]	0.016 µM	0.007 µM	0.005 µM
Cc1ccc(C(C)(C)c2cc(Cl)cc(NC(=O)c3cc4cc(NS(C)(=O)=O)c(Cl)cc4s3)c2)s1 [Example 179, 6-chloro-N-(3-chloro-5-(2-(5-methylthiophen-2-yl)propan-2-yl)phenyl)-5-(methylsulfonamido)benzo[b]thiophene-2-carboxamide]	0.007 µM	0.004 µM	0.004 µM

Now from value to molecule:

IC50 (LNCaP)	IC50 (STAT3)	IC50 (DU-145)	Structure (SMILES)
> 1.1 µM	3.3 µM	> 1.1 µM	C[S+]([O-])c1ccc(C(C)(C)c2cc(Cl)cc(NC(=O)c3cc4cc(NS(C)(=O)=O)ccc4s3)c2)cc1 (stereo not drawn) [Example 160, N-(3-chloro-5-(2-(4-(methylsulfinyl)phenyl)propan-2-yl)phenyl)-5-(methylsulfonamido)benzo[b]thiophene-2-carboxamide]
> 1.1 µM	> 10 µM	0.72 µM	CC(C)(c1ccc(S(C)(=O)=O)cc1)c1cc(Cl)cc(NC(=O)c2cc3cc(NS(C)(=O)=O)ccc3s2)c1 [Example 161, N-(3-chloro-5-(2-(4-(methylsulfonyl)phenyl)propan-2-yl)phenyl)-5-(methylsulfonamido)benzo[b]thiophene-2-carboxamide]
0.059 µM	0.068 µM	0.005 µM	CC(C)(c1cc(Cl)cc(NC(=O)c2cc3cc(NS(C)(=O)=O)ccc3s2)c1)c1cccs1 [Example 170, N-(3-chloro-5-(2-(thiophen-2-yl)propan-2-yl)phenyl)-5-(methylsulfonamido)benzo[b]thiophene-2-carboxamide]
0.071 µM	0.074 µM	0.038 µM	CC(C)(c1ccsc1)c1cc(Cl)cc(NC(=O)c2cc3cc(NS(C)(=O)=O)ccc3s2)c1 [Example 171, N-(3-chloro-5-(2-(thiophen-3-yl)propan-2-yl)phenyl)-5-(methylsulfonamido)benzo[b]thiophene-2-carboxamide]
0.091 µM	0.1 µM	0.033 µM	CC(C)(c1cc(Cl)cc(NC(=O)c2cc3cc(NS(C)(=O)=O)ccc3s2)c1)c1ccc(Cl)s1 [Example 174, N-(3-chloro-5-(2-(5-chlorothiophen-2-yl)propan-2-yl)phenyl)-5-(methylsulfonamido)benzo[b]thiophene-2-carboxamide]
0.071 µM	0.036 µM	0.038 µM	COc1sccc1C(C)(C)c1cc(Cl)cc(NC(=O)c2cc3cc(NS(C)(=O)=O)ccc3s2)c1 [Example 176, N-(3-chloro-5-(2-(2-methoxythiophen-3-yl)propan-2-yl)phenyl)-5-(methylsulfonamido)benzo[b]thiophene-2-arboxamide]
0.089 µM	0.047 µM	0.058 µM	COc1ccc(C(C)(C)c2cc(Cl)cc(NC(=O)c3cc4cc(NS(C)(=O)=O)ccc4s3)c2)s1 [Example 177, N-(3-chloro-5-(2-(5-methoxythiophen-2-yl)propan-2-yl)phenyl)-5-(methylsulfonamido)benzo[b]thiophene-2-carboxamide]
0.042 µM	0.025 µM	0.024 µM	Cc1ccc(C(C)(C)c2cc(Cl)cc(NC(=O)c3cc4cc(NS(C)(=O)=O)ccc4s3)c2)s1 [Example 178, N-(3-chloro-5-(2-(5-methylthiophen-2-yl)propan-2-yl)phenyl)-5-(methylsulfonamido)benzo[b]thiophene-2-carboxamide]
